Test results as given in ChEMBL document CHEMBL1201862, “PubChem BioAssay data set” (2004).
Activity calls are given as the source filed them.

Assays:
[1] = target: T1, High affinity choline transporter 1 (Homo sapiens, UniProt Q9GZV3); test: CHT inhibitors, dose response, cell-based, 5-point CRC, membrane potential dye (AID 504840); type: functional
T1 sequence (Q9GZV3 whole entry): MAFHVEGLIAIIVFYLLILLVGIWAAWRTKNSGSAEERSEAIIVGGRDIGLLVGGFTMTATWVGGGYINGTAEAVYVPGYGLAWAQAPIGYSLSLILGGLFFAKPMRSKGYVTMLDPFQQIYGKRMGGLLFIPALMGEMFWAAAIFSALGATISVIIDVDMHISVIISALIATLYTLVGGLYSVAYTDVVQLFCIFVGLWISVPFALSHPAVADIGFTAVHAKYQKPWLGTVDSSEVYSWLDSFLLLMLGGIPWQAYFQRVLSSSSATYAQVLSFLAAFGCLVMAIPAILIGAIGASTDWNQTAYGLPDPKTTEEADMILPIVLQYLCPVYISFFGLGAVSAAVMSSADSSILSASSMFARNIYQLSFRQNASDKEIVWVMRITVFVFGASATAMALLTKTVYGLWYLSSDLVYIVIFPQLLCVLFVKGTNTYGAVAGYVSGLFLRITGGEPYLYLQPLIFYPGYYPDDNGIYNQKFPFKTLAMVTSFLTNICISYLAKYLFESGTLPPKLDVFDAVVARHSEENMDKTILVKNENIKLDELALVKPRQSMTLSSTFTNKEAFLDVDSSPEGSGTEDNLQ

[2] = target: T1, High affinity choline transporter 1; test: CHT inhibitors, dose response, cell-based, 10-point CRC, membrane potential dye (AID 588401); type: functional;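 note: membrane potential dye fluorescence of choline-evoked depolarization via CHT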
[3] = Luminescence Cell-Based Dose Retest to Confirm Inhibitors of Cancer Stem Cells. [Related pubchem assays (depositor defined):AID2717, AID2721]; type: functional; details: Homo sapiens
[4] = target: T2, Heat shock factor protein 1 (Mus musculus, UniProt P38532); test: HSF1 potentiators in luciferase reporter cells, confirmation, cell-based, NIH3T3, luminescence, dose retest (AID 435004); type: functional;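 note: stress induced by proteasome inhibitor MG132 added 30 min after compound; luciferase reporter driven by HSF1 response element in NIH3T3 cells; actives raise luminescence as potentiators of the MG132 stress response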
T2 sequence (P38532 whole entry): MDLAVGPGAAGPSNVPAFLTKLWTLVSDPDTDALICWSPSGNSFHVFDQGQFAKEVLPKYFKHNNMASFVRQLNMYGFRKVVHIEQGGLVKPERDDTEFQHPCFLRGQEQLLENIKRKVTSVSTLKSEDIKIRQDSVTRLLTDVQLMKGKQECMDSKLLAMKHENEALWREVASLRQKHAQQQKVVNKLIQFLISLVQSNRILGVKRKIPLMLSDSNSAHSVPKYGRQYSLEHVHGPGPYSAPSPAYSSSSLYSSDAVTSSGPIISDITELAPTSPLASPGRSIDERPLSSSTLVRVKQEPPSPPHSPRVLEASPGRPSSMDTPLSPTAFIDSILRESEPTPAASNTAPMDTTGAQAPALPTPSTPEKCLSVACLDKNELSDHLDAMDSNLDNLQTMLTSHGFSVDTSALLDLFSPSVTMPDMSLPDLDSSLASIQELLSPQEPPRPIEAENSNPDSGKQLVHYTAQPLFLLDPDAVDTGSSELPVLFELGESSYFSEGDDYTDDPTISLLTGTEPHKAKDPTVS

[5] = target: T3, Replicative DNA helicase DnaB (Mycobacterium tuberculosis, UniProt P9WMR3); test: DnaB intein splicing inhibitors, dose response, biochemical, cell-free fluorescence (AID 449749); type: functional
T3 sequence (P9WMR3 whole entry): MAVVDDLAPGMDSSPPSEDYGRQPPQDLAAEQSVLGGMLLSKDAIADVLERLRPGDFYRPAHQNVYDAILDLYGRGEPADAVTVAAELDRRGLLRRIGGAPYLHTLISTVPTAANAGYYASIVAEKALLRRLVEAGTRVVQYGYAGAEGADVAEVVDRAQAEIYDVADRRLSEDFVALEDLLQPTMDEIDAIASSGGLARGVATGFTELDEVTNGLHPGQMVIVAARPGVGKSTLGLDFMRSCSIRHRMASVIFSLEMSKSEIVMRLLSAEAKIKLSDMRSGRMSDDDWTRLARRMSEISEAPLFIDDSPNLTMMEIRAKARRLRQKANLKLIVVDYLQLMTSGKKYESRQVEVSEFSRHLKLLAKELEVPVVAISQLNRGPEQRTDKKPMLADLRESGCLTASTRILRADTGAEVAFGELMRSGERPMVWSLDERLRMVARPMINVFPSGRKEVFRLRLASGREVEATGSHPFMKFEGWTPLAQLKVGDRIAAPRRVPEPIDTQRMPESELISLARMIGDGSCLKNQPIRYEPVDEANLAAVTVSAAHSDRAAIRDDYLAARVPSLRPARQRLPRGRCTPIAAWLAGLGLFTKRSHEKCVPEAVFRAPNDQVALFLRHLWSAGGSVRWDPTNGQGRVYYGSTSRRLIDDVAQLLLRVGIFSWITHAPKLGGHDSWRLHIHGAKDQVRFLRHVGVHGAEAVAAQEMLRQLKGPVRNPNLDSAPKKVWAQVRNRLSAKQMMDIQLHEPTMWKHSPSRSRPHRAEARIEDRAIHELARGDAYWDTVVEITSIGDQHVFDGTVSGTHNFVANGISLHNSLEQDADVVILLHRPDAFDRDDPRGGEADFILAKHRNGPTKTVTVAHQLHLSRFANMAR

[6] = target: T4, Protein RecA (Mycobacterium tuberculosis, UniProt P9WHJ3); test: Fluorescence Cell-Free Homogeneous Dose Retest to Identify Inhibitors of RecA-Intein Splicing Activity. [Related pubchem assays (depositor defined):AID2097, AID2223, AID489010, AID492950]; type: functional
T4 sequence (P9WHJ3 whole entry): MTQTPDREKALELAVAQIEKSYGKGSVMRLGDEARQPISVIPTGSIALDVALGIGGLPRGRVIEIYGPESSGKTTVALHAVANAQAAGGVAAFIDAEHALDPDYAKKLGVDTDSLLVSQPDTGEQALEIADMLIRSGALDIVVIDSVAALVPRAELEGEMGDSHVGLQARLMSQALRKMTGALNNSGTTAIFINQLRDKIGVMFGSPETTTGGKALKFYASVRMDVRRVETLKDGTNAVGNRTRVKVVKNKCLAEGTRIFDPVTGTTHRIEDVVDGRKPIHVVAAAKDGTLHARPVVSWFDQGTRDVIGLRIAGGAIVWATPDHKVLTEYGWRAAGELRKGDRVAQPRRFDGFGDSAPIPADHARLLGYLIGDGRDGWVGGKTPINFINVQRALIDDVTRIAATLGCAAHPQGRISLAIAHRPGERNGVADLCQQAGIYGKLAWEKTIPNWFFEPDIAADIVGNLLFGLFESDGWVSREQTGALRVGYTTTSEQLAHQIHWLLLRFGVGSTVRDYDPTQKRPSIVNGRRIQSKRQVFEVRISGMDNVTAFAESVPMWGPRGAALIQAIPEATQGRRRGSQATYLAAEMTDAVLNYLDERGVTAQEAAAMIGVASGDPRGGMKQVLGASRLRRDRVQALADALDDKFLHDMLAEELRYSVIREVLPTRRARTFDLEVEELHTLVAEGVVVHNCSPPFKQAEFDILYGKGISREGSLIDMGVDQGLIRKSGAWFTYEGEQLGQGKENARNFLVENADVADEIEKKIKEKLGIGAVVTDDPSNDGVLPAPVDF

[7] = target: Melanocortin receptor 4 (Homo sapiens, UniProt P32245); test: MC4R antagonist potency on cAMP, dose response, cell-based, TR-FRET, biased antagonists (AID 602298); type: functional;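 note: antagonist potency against agonist-stimulated cAMP production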
Melanocortin receptor 4, sequence (P32245 whole entry): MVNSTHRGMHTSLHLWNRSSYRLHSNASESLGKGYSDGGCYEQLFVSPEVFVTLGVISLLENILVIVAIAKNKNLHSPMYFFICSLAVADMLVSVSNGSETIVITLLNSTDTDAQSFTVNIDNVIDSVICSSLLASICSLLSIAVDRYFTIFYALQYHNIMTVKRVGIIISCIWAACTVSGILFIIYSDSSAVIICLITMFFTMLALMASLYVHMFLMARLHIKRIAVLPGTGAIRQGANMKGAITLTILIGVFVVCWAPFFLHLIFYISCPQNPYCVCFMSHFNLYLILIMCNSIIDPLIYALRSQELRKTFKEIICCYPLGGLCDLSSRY

[8] = nonselective inhibitors of cellular cAMP signaling, dose response, counter-screen for MC4R biased antagonist project, cell-based, TR-FRET cAMP detection (AID 602305); type: functional;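 note: U2OS cells stimulated with forskolin near its EC80 as the cAMP inducer; potency is for inhibition of forskolin-stimulated cAMP signaling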
[9] = Shn3 3'UTR reporter inhibitors, dose response, cell-based, Clone20 osteoblasts, firefly luciferase, cherry-picked (AID 624132); type: functional;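 note: firefly luciferase luminescence from reporter carrying the Shn3 3'UTR in osteoblasts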
[10] = HepG2 cell cytotoxicity, dose response, cytotoxicity control for Shn3 inhibitor project, CellTiter-Glo, cherry-picked (AID 624134); type: functional, cell-based
[11] = control 3'UTR Renilla luciferase suppression, dose response, counter-screen for Shn3 inhibitor project, cell-based, Clone20-Shn3RL, cherry-picked (AID 624133); type: functional
[12] = target: Protein Wnt-3a (Mus musculus, UniProt P27467); test: Wnt3a-driven reporter signaling inhibition, dose response, selectivity assay for Gli-SUFU antagonist project, Wnt-LIGHT cells, luminescence (AID 651570); type: functional; details: read-out: IC50_Mean;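 note: Wnt-LIGHT reporter cells stimulated with conditioned medium from Wnt3a-producing cells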
Protein Wnt-3a, sequence (P27467 whole entry): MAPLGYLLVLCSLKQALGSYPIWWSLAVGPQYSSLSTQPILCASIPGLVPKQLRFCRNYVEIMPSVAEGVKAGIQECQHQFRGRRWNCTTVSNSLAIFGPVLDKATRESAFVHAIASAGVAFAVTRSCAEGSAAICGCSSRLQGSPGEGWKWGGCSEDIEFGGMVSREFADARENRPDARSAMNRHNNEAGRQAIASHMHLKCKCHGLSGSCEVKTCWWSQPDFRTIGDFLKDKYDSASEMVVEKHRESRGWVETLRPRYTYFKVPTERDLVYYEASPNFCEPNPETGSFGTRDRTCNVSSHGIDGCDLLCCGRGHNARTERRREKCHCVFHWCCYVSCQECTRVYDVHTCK

[13] = cytotoxicity in HPDE-C7 cells, cell-based, fluorescence, HTS (AID 430); type: functional; details: Homo sapiens
[14] = cytotoxicity in KRAS-transformed pancreatic duct cells, primary screen, cell-based, fluorescence, HTS (AID 431); type: functional; details: Homo sapiens;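 note: cell line used: HPDE-C7K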
[15] = AlphaScreen signal interference compounds, dose response, artefact control for ARNT-TACC3 interaction inhibitor project, biochemical, luminescence, cherry-pick (AID 651705); type: functional;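 note: AlphaScreen bead proximity signal that flags compounds interfering with the detection technology; potency reflects signal decrease which marks the compound as an assay artifact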
[16] = target: T5, Apoptotic protease-activating factor 1 (Homo sapiens, UniProt O14727); test: SAR analysis of small molecule Activators of Apaf-1 in a Fluorescent assay.; type: functional; details: read-out: EC50_Mean;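 note: caspase-3 cleavage of fluorogenic Rh110 DEVD substrate downstream of apoptosome activation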
T5 sequence (O14727 whole entry): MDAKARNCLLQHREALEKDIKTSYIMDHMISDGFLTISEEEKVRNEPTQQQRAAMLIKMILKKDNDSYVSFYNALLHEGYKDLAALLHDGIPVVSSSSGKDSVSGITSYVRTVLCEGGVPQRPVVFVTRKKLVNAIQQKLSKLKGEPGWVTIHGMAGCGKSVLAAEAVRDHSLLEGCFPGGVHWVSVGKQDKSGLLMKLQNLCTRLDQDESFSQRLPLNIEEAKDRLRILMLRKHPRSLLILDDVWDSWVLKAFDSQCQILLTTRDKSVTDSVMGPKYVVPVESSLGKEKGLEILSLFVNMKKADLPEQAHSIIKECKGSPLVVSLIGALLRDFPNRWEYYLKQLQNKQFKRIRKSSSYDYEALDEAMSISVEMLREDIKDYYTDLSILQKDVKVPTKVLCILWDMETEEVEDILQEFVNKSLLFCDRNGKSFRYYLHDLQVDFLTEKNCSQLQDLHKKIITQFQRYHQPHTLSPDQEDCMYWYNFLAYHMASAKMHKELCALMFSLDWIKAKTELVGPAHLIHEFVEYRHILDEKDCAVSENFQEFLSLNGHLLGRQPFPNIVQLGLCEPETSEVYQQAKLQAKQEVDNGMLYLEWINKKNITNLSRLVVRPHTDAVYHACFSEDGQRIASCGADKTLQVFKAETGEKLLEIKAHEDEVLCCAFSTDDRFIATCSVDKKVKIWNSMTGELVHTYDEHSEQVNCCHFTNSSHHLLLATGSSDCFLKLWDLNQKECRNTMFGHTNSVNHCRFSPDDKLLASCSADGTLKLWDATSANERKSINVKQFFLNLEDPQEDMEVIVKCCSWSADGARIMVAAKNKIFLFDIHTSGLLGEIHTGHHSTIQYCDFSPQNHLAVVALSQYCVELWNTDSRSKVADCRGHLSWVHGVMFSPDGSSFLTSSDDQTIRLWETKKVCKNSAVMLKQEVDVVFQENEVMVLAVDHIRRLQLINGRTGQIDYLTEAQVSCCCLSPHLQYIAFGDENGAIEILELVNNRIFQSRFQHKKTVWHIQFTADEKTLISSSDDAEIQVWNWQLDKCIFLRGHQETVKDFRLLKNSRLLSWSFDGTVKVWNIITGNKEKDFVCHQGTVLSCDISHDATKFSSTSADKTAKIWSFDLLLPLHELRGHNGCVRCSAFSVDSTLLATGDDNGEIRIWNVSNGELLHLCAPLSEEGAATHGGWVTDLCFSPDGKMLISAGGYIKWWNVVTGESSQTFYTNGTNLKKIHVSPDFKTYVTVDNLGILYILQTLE

CC(C)(C)NCC(O)c1cc(O)cc(O)c1 (stereo not given)
IC50 [1]: 0.0841 µM (active) | IC50 [2]: 0.0142 µM (active)

O=[N+]([O-])c1ccc(CSc2nnc3ccccn23)cc1
IC50 [1]: 4.29 µM (active) | IC50 [2]: 0.8 µM (active)

O=C(C[S+]([O-])c1ccc(C(F)(F)F)cc1[N+](=O)[O-])Oc1ccccc1 (stereo not given)
AC50 [3]: 3.71 µM (active) | EC50 [4]: 22.7 µM (active) | AC50 [5]: 10.4 µM (active) | IC50 [1]: 12.3 µM (active) | EC50 [6]: 4.59 µM (active) | IC50 [7]: 13.5 µM (inactive) | IC50 [8]: > 64.6 µM (inactive)

Cc1ccc(-n2nc3ccc(NC(=S)NC(=O)/C=C/c4ccco4)cc3n2)cc1
IC50 [7]: 55.6 µM (inactive) | IC50 [8]: > 64.6 µM (inactive)

COc1ccc(CNCC(O)COc2cccc3c2OC(C)(C)C3)cc1 (stereo not given)
AC50 [9]: 1.68 µM (active) | AC50 [10]: 49.4 µM (active) | AC50 [11]: 1.57 µM (active) | IC50 [12]: 3.22 µM (active)

CCN(CC)S(=O)(=O)c1cc(C(=O)Nc2nncs2)c(Cl)cc1Cl
EC50 [13]: 13.5 µM (active) | EC50 [14]: > 20 µM (not active) | IC50 [1]: 7.64 µM (active) | IC50 [2]: 6.21 µM (active)

COc1ccc(CN(C)Cc2nc(Cc3cccc(F)c3)no2)c2cccnc12
IC50 [12]: 2.18 µM (active)

Nc1nc(O)nc(Nc2ccccc2)c1N=O
AC50 [15]: 111 µM (active)

COc1ccc(C2=N[C@H](C(=O)O)CO2)cc1C(F)(F)F
EC50 [16]: > 100 µM (inactive)

CC(CC(F)(F)F)C(=O)O (stereo not given)
EC50 [16]: > 100 µM (inactive)
